Results from US5173297A, “Bacteriocin from Lactococcus lactis subspecies lactis” (Quest International Flavors & Food Ingredients Company …, priority 1991, dated 1992).

Tests used:
Experiment in all cases: Spectrum of antimicrobial activity
Design in all cases: key: + = inhibition; - = no inhibition
Details in all cases: pure, titer 3200 AU/ml
[1] = test system: L. plantarum 346; format: cell-based, Lactobacillus plantarum
[2] = test system: L. plantarum 355; format: cell-based, Lactobacillus plantarum
[3] = test system: L. casei 326; format: cell-based, Lactobacillus casei
[4] = test system: L. casei 842; format: cell-based, Lactobacillus casei
[5] = test system: L. brevis 329; format: cell-based, Lactobacillus brevis
[6] = test system: L. brevis 888; format: cell-based, Lactobacillus brevis
[7] = test system: L. fermentum 342; format: cell-based, Lactobacillus fermentum
[8] = test system: L. fermentum 701; format: cell-based, Lactobacillus fermentum
[9] = test system: P. acidilactici PAC 1.0; format: cell-based, Pediococcus acidilactici
[10] = test system: P. acidilactici A; format: cell-based, Pediococcus acidilactici
[11] = test system: P. acidilactici B; format: cell-based, Pediococcus acidilactici
[12] = test system: P. acidilactici C; format: cell-based, Pediococcus acidilactici
[13] = test system: P. acidilactici D; format: cell-based, Pediococcus acidilactici
[14] = test system: P. pentosaceus FBB63C; format: cell-based, Pediococcus pentosaceus
Procedure: Colonies appearing on the agar plates were screened for antibacterial activity against a selected indicator, which usually predicted a wide antibacterial spectrum. The indicator chosen was Pediococcus pentosaceus FBB63C (Gonzalez, C. F., and B. S. Kunka, Appl. Environ. Microbiol. 53:2534-2538 (1987) and U.S. Pat. No. 4,883,673 to Gonzalez. Antibacterial activity was determined by picking colonies to replicate agar plates containing 1.9% sodium beta-glycerophosphate as buffer and after appearance of colonies overlaying with indicator.
To ascertain if the antibacterial substance is secreted into liquid medium, the cultures were grown in MRS broth and cell free filtrates of turbid cultures were made and the filtrate posted on a seeded semisolid agar overlay of the indicator. Antibacterial activity was quantitated by assigning arbitrary units. One arbitrary unit (AU) was defined as 5 μl of the culture supernatant yielding a definite, clear zone of inhibition on the indicator lawn. The titer was expressed as the reciprocal of the highest dilution of supernatant showing inhibition.

[15] = test system: L. monocytogenes 04; format: cell-based, Listeria monocytogenes
[16] = test system: L. monocytogenes 08; format: cell-based, Listeria monocytogenes
[17] = test system: L. monocytogenes 36; format: cell-based, Listeria monocytogenes
[18] = test system: L. monocytogenes 38; format: cell-based, Listeria monocytogenes
[19] = test system: L. monocytogenes 59; format: cell-based, Listeria monocytogenes
[20] = test system: L. monocytogenes 62; format: cell-based, Listeria monocytogenes
[21] = test system: L. monocytogenes 69; format: cell-based, Listeria monocytogenes
[22] = test system: S. mutans GS5; format: cell-based, Streptococcus mutans
[23] = test system: S. mutans V262; format: cell-based, Streptococcus mutans
[24] = test system: B. subtilis RM125; format: cell-based, Bacillus subtilis
[25] = test system: B. subtilis amylase^+; format: cell-based, Bacillus subtilis
[26] = test system: L. lactis LLA 1.0; format: cell-based, Lactococcus lactis
[27] = test system: L. lactis LLA 2.0; format: cell-based, Lactococcus lactis

nisin [Nisin Pure]
-: inhibition of indicator strain S. mutans V262 [23]
+: inhibition of indicator strain L. plantarum 346 [1] | inhibition of indicator strain L. plantarum 355 [2] | inhibition of indicator strain L. casei 326 [3] | inhibition of indicator strain L. casei 842 [4] | inhibition of indicator strain L. brevis 329 [5] | inhibition of indicator strain L. brevis 888 [6] | inhibition of indicator strain L. fermentum 342 [7] | inhibition of indicator strain L. fermentum 701 [8] | inhibition of indicator strain P. acidilactici PAC 1.0 [9] | inhibition of indicator strain P. acidilactici A [10] | inhibition of indicator strain P. acidilactici B [11] | inhibition of indicator strain P. acidilactici C [12] | inhibition of indicator strain P. acidilactici D [13] | inhibition of indicator strain P. pentosaceus FBB63C [14] | inhibition of indicator strain L. monocytogenes 04 [15] | inhibition of indicator strain L. monocytogenes 08 [16] | inhibition of indicator strain L. monocytogenes 36 [17] | inhibition of indicator strain L. monocytogenes 38 [18] | inhibition of indicator strain L. monocytogenes 59 [19] | inhibition of indicator strain L. monocytogenes 62 [20] | inhibition of indicator strain L. monocytogenes 69 [21] | inhibition of indicator strain S. mutans GS5 [22] | inhibition of indicator strain B. subtilis RM125 [24] | inhibition of indicator strain B. subtilis amylase^+ [25] | inhibition of indicator strain L. lactis LLA 1.0 [26] | inhibition of indicator strain L. lactis LLA 2.0 [27]
